The record followed here is US11369572B2, “Fas (Apo-1,CD95) targeted platforms for intracellular drug delivery” (Queen Mary & Westfield College, priority 2009, dated 2022).

This experiment relates to IGROV1-luciferase cells. Description: Peritoneal ovarian cancer xenograft, bioluminescence imaging. Conditions: by day 48; n=5.

Protocol: 5×10^6 IGROV1-luciferase cells were inoculated IP into female Balb C nu/nu mice on day 1. Paclitaxel (20 mg/kg) and PLGA microspheres were administered IP once per week (days 7, 14, 21 and 28). For bioluminescence imaging, mice were injected IP with 125 mg/kg D-luciferin (Calliper Life Sciences, UK) and then anesthetized (2% isofluorane by inhalation). Five minutes later, whilst still under anaesthetic, they were placed in a light-tight chamber on a warmed stage (37° C.) and light emission from a defined region of interest on a ventral surface was imaged on a Xenogen IVIS Imaging System 100 system (Alameda, Calif., USA). Data were analyzed using Living Image software (also Xenogen, Alameda, Calif., USA) and are presented as relative radiance (calculated from mean Radiance photons/s/cm2/sr).”
Standard error of mean (SEM) was used to assess consistency between each experimental group. One way ANOVA with Bonferroni post test were used to evaluate differences between groups. Two tailed t test was used to compare two groups.

For `CC(=O)O[C@H]1C(=O)[C@@]2(C)[C@H]([C@H](OC(=O)c3ccccc3)[C@]3(O)C[C@H](OC(=O)[C@H](O)[C@@H](NC(=O)c4ccccc4)c4ccccc4)C(C)=C1C3(C)C)[C@]1(OC(C)=O)CO[C@@H]1C[C@@H]2O` [paclitaxel], the further animals sacrificed was 2.
